Activity data for 2 compounds are collected here from ChEMBL document CHEMBL1926601, “Persipeptides A and B, two cyclic peptides from Streptomyces sp. UTMC 1154” (Bioorg Med Chem, 2012).

The source made the active and inactive calls. The calls are words filed in the database; no cut-off is given here. Square brackets hold non-standard residues; d marks the D form. Peptide text beside a SMILES is read from it. NMeF = CN[C@@H](Cc1ccccc1)C(=O)O; NMeV = CN[C@H](C(=O)O)C(C)C

For assay [1], the system named is Staphylococcus aureus. Put plainly: Antimicrobial activity against methicillin-resistant Staphylococcus aureus at 100 ug/ml by agar diffusion test. The assay is classed as functional, organism-based. Background: A growth-free zone around the sample is the usual read-out of agar diffusion tests.
In assay [2] the test system is Staphylococcus aureus. Put plainly: Antimicrobial activity against Staphylococcus aureus at 100 ug/ml by agar diffusion test. The class given is functional, organism-based.

`CC(C)[C@@H]1NC(=O)[C@H](C(C)C)N(C)C(=O)[C@H](C(C)C)NC(=O)[C@H](Cc2ccccc2)N(C)C(=O)[C@H](Cc2ccccc2)NC1=O` (cyclo(F[NMeF]V[NMeV]V)): the result in the assay with Staphylococcus aureus [1] and in the assay with Staphylococcus aureus [2] was inactive.
As for `CC(C)[C@@H]1NC(=O)[C@H](Cc2ccccc2)N(C)C(=O)[C@H](C(C)C)NC(=O)[C@H](C(C)C)N(C)C(=O)[C@H](Cc2ccccc2)NC1=O` (cyclo(F[NMeV]V[NMeF]V)), the result in the assay on Staphylococcus aureus [1] and in the assay on Staphylococcus aureus [2] was inactive.
